Measured values as given in patent US11684614B2, “Formulations of hydroxypyridonate actinide/lanthanide decorporation agents” (priority 2017, dated 2023).
Values joined by “and” are separate entries in the source; they are usually repeats but may differ in a detail not shown here. Equal entries are not always repeated.

Experiment: Repeated-treatment efficacy for removing an intravenous dose of 238Pu (excretion, tissue retention, clinical observations), female and male arms;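 for % Recovered Dose ART: abdominal tissue remainder incl GI tract reproductive organs spleen bladder and fat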
Format: in vivo, Swiss-Webster mice
Details: male animals, listed as 3,4,3-LI(1,2-HOPO); for % Recovered Dose Urine per Day, Day 3 / % Recovered Dose Urine per Day, Day 4 / % Recovered Dose Urine per Day, Day 5 / % Recovered Dose Urine per Day, Day 6 / % Recovered Dose Urine per Day, Day 7 / % Recovered Dose Urine per Day, Day 2 / % Recovered Dose Urine per Day, Day 1: Day 7 necropsy
Method: The objective of this study was to characterize the efficacy of 3,4,3-L1(1,2-HOPO) at enhancing elimination from an internal plutonium burden in female and male Swiss-Webster mice administered a soluble citrate complex of ^238Pu and treated multiple times, starting at 24 hours after the exposure. Efficacy was evaluated by comparing the tissue contents, urinary and fecal excretions of ^238Pu in treated animals versus untreated animals.
The medical countermeasure 3,4,3-L1(1,2-HOPO) was administered parenterally (ip) or orally (po) via consecutive injections or gavages (six daily or twelve twice daily) starting at 24 hours post contamination at the following four selected doses: 30 μmol/kg ip, 150 μmol/kg po, 300 μmol/kg po, and 600 μmol/kg po (equivalent to respective approximate human doses range of […], using the accepted conversion system of mouse doses into human equivalent doses—HED—based on body surface area). Oral doses also included the permeability enhancer selected during formulation development work.
• Challenge isotope: ^238Pu • Challenge dose: 25 nCi (i.e., approximately 0.8 μCi/kg) • Route of contamination: Intravenous (iv) tail-vein • Route of treatment: Intraperitoneal Injection (ip) or Oral (po) • Frequency of treatment: Multiple (once- or twice-daily for 6 days) doses, starting 24 hr postcontamination • Treatment dose calculation: Dose calculations (mg/kg or μmol/kg) for the decorporation agent were based on the individual body weight measured after contamination. • Study Duration: 11 days, in-life
c. […] Test article and control dose formulations were prepared within 1 day of dose administration, by weighing out the appropriate amount of test article, dispersing in vehicle. For ip solutions, the test article was used alone, while for oral suspensions, a mixture of test article and excipient (90:10, w:w) was used. The pH was adjusted to 7.0-7.4 for ip administration and 5.0-5.5 for oral administration with sterile NaOH. Dose formulations were prepared at room temperature and filter-sterilized. • Storage: 2-8° C.; refrigerated; protected from light. • Characterization: The concentration of each test article formulation was verified by high-performance liquid chromatography-mass spectrometry. • Test Article Handling: Test, reference, and control article formulations were handled with the use of eye protection, gloves, and a protective laboratory coat. • Correct Dose Assurance: The test article was weighed with calibrated balances. The administration of each dose formulation was properly documented, and the amount administered to each animal recorded.
e. Experimental Procedures (In-Life Evaluations and Euthanasia) • Contamination: Single administration by intravenous (iv) tail-vein injection (0.2 mL injection volume) under isoflurane anesthesia. Three standard 0.2 mL injections were performed into polyethylene bottles and pre-loaded with aliquots of concentrated nitric acid on each injection day. Six female and six male mice were culled for necropsy 1 hr post-contamination and were used as standards. A11 standards were processed and counted together with the final samples to allow verification of the contamination dose. • Dose Administration: Single administration by intraperitoneal injection (ip) or oral gavage (po) under isoflurane anesthesia. • Mortality/Morbidity: Assessed at least once daily. • Clinical Observations: Recorded once daily (4 hr post-dose on day of treatment), or more often as clinical signs warranted. […]

SMILES: O=C(NCCCN(CCCCN(CCCNC(=O)c1cccc(=O)n1O)C(=O)c1cccc(=O)n1O)C(=O)c1cccc(=O)n1O)c1cccc(=O)n1O [3,4,3-L1(1,2-HOPO)]
- % Recovered Dose Urine per Day, Day 3 (animal group B): 0.61% and 1.15% and 1.12% and 1.18%
- % Recovered Dose Urine per Day, Day 4 (animal group B): 1.30% and 0.41% and 0.54% and 0.89%
- % Recovered Dose Urine per Day, Day 5 (animal group B): 0.61% and 0.58% and 0.10% and 0.65%
- % Recovered Dose Urine per Day, Day 6 (animal group B): 0.18% and 0.64% and 0.10%
- % Recovered Dose Urine per Day, Day 7 (animal group B): 0.17% and 0.37% and 0.28% and 0.50%
- % Recovered Dose Urine per Day, Day 2 (animal group C): 1.72% and 4.28% and 3.19% and 0.38%
- % Recovered Dose Urine per Day, Day 3 (animal group C): 0.95% and 1.32% and 0.98% and 0.50%
- % Recovered Dose Urine per Day, Day 4 (animal group C): 0.59% and 1.17% and 0.68% and 0.55%
- % Recovered Dose Urine per Day, Day 5 (animal group C): 0.35% and 0.65% and 0.33% and 0.19%
- % Recovered Dose Urine per Day, Day 6 (animal group C): 0.19% and 0.70% and 0.52% and 0.07%
- % Recovered Dose Urine per Day, Day 7 (animal group C): 0.10% and 0.94% and 0.45% and 0.11%
- % Recovered Dose Urine per Day, Day 1 (animal group E): 21.72% and 14.01% and 18.66% and 17.47%
- % Recovered Dose Urine per Day, Day 2 (animal group E): 3.64% and 2.67% and 3.46% and 2.04%
- % Recovered Dose Urine per Day, Day 3 (animal group E): 1.49% and 0.90% and 1.61% and 1.12%
- % Recovered Dose Urine per Day, Day 4 (animal group E): 0.67% and 0.69% and 0.59% and 0.53%
- % Recovered Dose Urine per Day, Day 5 (animal group E): 0.39% and 0.62% and 0.41%
- % Recovered Dose Urine per Day, Day 6 (animal group E): 0.49% and 0.53% and 0.46% and 0.31%
- % Recovered Dose Urine per Day, Day 7 (animal group E): 0.21% and 0.41% and 0.23% and 0.27%
- % Recovered Dose Urine per Day, Day 1 (animal group F): 19.31% and 19.65% and 13.22% and 25.18%
- % Recovered Dose Urine per Day, Day 2 (animal group F): 3.62% and 1.94% and 2.38% and 2.07%
- % Recovered Dose Urine per Day, Day 3 (animal group F): 1.51% and 1.15% and 1.06%
- % Recovered Dose Urine per Day, Day 4 (animal group F): 0.98% and 0.55% and 0.74% and 0.83%
- % Recovered Dose Urine per Day, Day 5 (animal group F): 0.45% and 0.42% and 0.47% and 0.41%
- % Recovered Dose Urine per Day, Day 6 (animal group F): 0.45% and 0.47% and 0.36% and 0.29%
- % Recovered Dose Urine per Day, Day 7 (animal group F): 0.55% and 0.40% and 0.72% and 0.26%
- % Recovered Dose ART (Day-7 necropsy, animal group B): 2.16% and 1.57% and 1.65% and 1.32%
- % Recovered Dose Combined Body (Day-7 necropsy, animal group B): 52.05% and 37.93% and 50.13% and 45.55%
- % Recovered Dose Combined Excreta (Day-7 necropsy, animal group B): 47.95% and 62.07% and 49.87% and 54.45%
- % Recovered Dose Kidney (Day-7 necropsy, animal group B): 0.29% and 0.25% and 0.26% and 0.45%
- % Recovered Dose SKEL (Day-7 necropsy, animal group B): 15.55% and 20.00% and 23.24% and 20.71%
- % Recovered Dose SOFT (Day-7 necropsy, animal group B): 3.27% and 3.41% and 2.67% and 3.29%
- % Recovered Dose Total Feces (Day-7 necropsy, animal group B): 22.40% and 40.49% and 26.02% and 32.13%
- % Recovered Dose Total Urine (Day-7 necropsy, animal group B): 25.54% and 21.58% and 23.85% and 22.32%
- % Recovered Dose ART (Day-7 necropsy, animal group C): 1.42% and 1.55% and 1.84% and 1.39%
- % Recovered Dose Combined Body (Day-7 necropsy, animal group C): 44.39% and 38.12% and 45.21% and 38.36%
- % Recovered Dose Combined Excreta (Day-7 necropsy, animal group C): 55.61% and 61.88% and 54.79% and 61.64%
